# ChEMBL document CHEMBL4619760, “Anti-inflammatory Efficacy of Combined Natural Alkaloid Berberine and S1PR Modulator Fingolimod at Low Doses in Ulcerative Colitis Preclinical Models” (J Nat Prod, 2020)
# Active and inactive are the calls of the source. No cut-off for these calls is given here.
# Tests used:
# Mus musculus [1] = experiment: Anti-colitis activity against DSS-induced C57BL/6 mouse model of chronic relapsing colitis assessed as reduction in stool bleeding at 0.3 mg/kg, po administered once daily for 30 days starting from day 13 post DSS-challenge measured on day 38; assay type: functional, organism-based
# Mus musculus [2] = experiment: Anti-colitis activity against DSS-induced C57BL/6 mouse model of chronic relapsing colitis assessed as reduction in stool bleeding at 0.3 mg/kg, po administered once daily for 30 days starting from day 13 post DSS-challenge measured on day 43; assay type: functional, organism-based
# Mus musculus [3] = experiment: Effect on total STAT3 expression in DSS-induced C57BL/6 mouse model of subchronic relapsing colitis at 0.15 mg/kg, po administered once daily for 14 days starting from day 5 post DSS-challenge cotreated with 20 mg/kg berberine by Western blot analysis; assay type: ADME, organism-based; details: in vivo, 336 h
# Mus musculus [4] = experiment: Anti-colitis activity against DSS-induced C57BL/6 mouse model of chronic relapsing colitis assessed as reduction in disease activity index at 0.15 mg/kg, po administered once daily for 30 days starting from day 13 post DSS-challenge cotreated with 20 mg/kg berberine and measured on day 24; assay type: functional, organism-based
# [5] = (§1) Toxicity in DSS-induced C57BL/6 mouse model of chronic relapsing colitis assessed as induction of abnormalities in kidney at 0.15 mg/kg, po administered once daily for 30 days starting from day 13 post DSS-challenge cotreated with 20 mg/kg berberine by hematoxylin and eosin staining based light microscopic analysis; assay type: organism-based; details: in vivo, 720 h
# Mus musculus [6] = experiment: (§2) Anti-colitis activity against DSS-induced C57BL/6 mouse model of subchronic relapsing colitis assessed as reduction in colon swelling at 0.15 mg/kg, po administered once daily for 14 days starting from day 5 post DSS-challenge cotreated with 20 mg/kg berberine and measured after day 12 to day 18; assay type: functional, organism-based
# THP-1 = experiment: Antiinflammatory activity in human THP1 cells assessed as reduction in LPS-induced IL6 mRNA level at 0.5 uM cotreated with 0.5 uM berberine incubated for 1 hr followed by LPS challenge and measured after 4 to 6 hrs by q-PCR method; assay type: functional, cell-based
# Mus musculus [7] = experiment: as §1, with “Anti-colitis activity against” for “Toxicity in”, “reduction” for “induction of abnormalities”, “DSS-induced mononuclear cell infiltration in spleen” for “kidney”; assay type: functional, organism-based
# Mus musculus [8] = experiment: Anti-colitis activity against DSS-induced C57BL/6 mouse model of chronic relapsing colitis assessed as reduction in DSS-induced mononuclear cell infiltration in spleen at 0.3 mg/kg, po administered once daily for 30 days starting from day 13 post DSS-challenge by hematoxylin and eosin staining based light microscopic analysis; assay type: functional, organism-based
# [9] = as §1, with “brain” for “kidney”; assay type: organism-based; details: in vivo, 720 h
# Mus musculus [10] = experiment: Anti-colitis activity against DSS-induced C57BL/6 mouse model of chronic relapsing colitis assessed as reduction in disease activity index at 0.15 mg/kg, po administered once daily for 30 days starting from day 13 post DSS-challenge cotreated with 20 mg/kg berberine and measured on day 43; assay type: functional, organism-based
# Mus musculus [11] = experiment: Anti-colitis activity against DSS-induced C57BL/6 mouse model of chronic relapsing colitis assessed as reduction in stool bleeding at 0.15 mg/kg, po administered once daily for 30 days starting from day 13 post DSS-challenge cotreated with 20 mg/kg berberine and measured on day 43; assay type: functional, organism-based
# [12] = Toxicity in DSS-induced C57BL/6 mouse model of chronic relapsing colitis assessed as induction of abnormalities in kidney at 0.3 mg/kg, po administered once daily for 30 days starting from day 13 post DSS-challenge by hematoxylin and eosin staining based light microscopic analysis; assay type: organism-based; details: in vivo, 720 h
# [13] = biological target: Signal transducer and activator of transcription 3 (Homo sapiens) (UniProt P40763); experiment: Inhibition of STAT3 activation in human THP1 cells assessed as reduction in LPS-induced phosphorylated STAT3 expression at 0.5 uM cotreated with 0.5 uM berberine incubated for 1 hr followed by LPS challenge and measured after 4 to 6 hrs by Western blot analysis; assay type: cell-based; details: THP-1
# Chain of Signal transducer and activator of transcription 3 (Homo sapiens) (P40763 whole entry): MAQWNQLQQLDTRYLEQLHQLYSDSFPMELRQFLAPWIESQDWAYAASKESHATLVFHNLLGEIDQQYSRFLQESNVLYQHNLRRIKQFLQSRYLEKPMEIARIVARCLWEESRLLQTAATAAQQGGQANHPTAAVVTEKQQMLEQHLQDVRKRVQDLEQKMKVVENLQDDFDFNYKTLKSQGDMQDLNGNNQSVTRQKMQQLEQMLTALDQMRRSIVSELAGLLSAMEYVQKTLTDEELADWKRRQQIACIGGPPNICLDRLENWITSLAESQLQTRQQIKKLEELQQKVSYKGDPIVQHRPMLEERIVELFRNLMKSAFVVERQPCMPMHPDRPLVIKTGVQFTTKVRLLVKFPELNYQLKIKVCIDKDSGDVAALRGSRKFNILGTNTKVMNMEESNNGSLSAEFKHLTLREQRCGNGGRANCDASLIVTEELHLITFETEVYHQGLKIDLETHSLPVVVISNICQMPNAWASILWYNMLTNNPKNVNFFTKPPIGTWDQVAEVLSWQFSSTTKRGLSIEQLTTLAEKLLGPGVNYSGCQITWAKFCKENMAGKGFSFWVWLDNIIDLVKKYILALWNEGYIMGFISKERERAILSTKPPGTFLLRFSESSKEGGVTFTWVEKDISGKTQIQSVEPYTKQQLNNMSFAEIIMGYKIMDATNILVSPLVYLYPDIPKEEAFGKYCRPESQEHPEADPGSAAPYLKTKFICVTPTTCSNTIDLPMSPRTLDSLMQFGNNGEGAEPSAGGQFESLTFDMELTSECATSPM
# [14] = Toxicity in DSS-induced C57BL/6 mouse model of chronic relapsing colitis assessed as induction of abnormalities in heart at 0.3 mg/kg, po administered once daily for 30 days starting from day 13 post DSS-challenge by hematoxylin and eosin staining based light microscopic analysis; assay type: organism-based; details: in vivo, 720 h
# Mus musculus [15] = experiment: Antiinflammatory activity against DSS-induced C57BL/6 mouse model of subchronic relapsing colitis assessed as reduction in S1PR1 mRNA level at 0.3 mg/kg, po administered once daily for 14 days starting from day 5 post DSS-challenge by RT-qPCR analysis; assay type: functional, organism-based
# Mus musculus [16] = experiment: Anti-colitis activity against DSS-induced C57BL/6 mouse model of subchronic relapsing colitis assessed as reduction in DSS-induced colon shortening at 0.3 mg/kg, po administered once daily for 14 days starting from day 5 post DSS-challenge; assay type: functional, organism-based
# Mus musculus [17] = experiment: as §2, with “stool bleeding score” for “colon swelling”; assay type: functional, organism-based
# Mus musculus [18] = experiment: Anti-colitis activity against DSS-induced C57BL/6 mouse model of subchronic relapsing colitis assessed as reduction in phosphorylated STAT3 level at 0.3 mg/kg, po administered once daily for 14 days starting from day 5 post DSS-challenge by Western blot analysis; assay type: functional, organism-based
# Mus musculus [19] = experiment: Anti-colitis activity against DSS-induced C57BL/6 mouse model of subchronic relapsing colitis assessed as reduction in spleen swelling at 0.3 mg/kg, po administered once daily for 14 days starting from day 5 post DSS-challenge; assay type: functional, organism-based
# Mus musculus [20] = experiment: as §2, with “stool consistency score” for “colon swelling”; assay type: functional, organism-based
# Mus musculus [21] = experiment: Anti-colitis activity against DSS-induced C57BL/6 mouse model of subchronic relapsing colitis assessed as reduction in DSS-induced colon swelling at 0.3 mg/kg, po administered once daily for 30 days starting from day 13 post DSS-challenge; assay type: functional, organism-based
# [22] = as §1, with “liver” for “kidney”; assay type: organism-based; details: in vivo, 720 h
# Mus musculus [23] = experiment: Anti-colitis activity against DSS-induced C57BL/6 mouse model of subchronic relapsing colitis assessed as reduction in colon swelling at 0.3 mg/kg, po administered once daily for 14 days starting from day 5 post DSS-challenge; assay type: functional, organism-based
# Mus musculus [24] = experiment: Anti-colitis activity against DSS-induced C57BL/6 mouse model of chronic relapsing colitis assessed as reduction in DSS-induced inflammatory cell infiltration in colon at 0.15 mg/kg, po administered once daily for 30 days starting from day 13 post DSS-challenge cotreated with 20 mg/kg berberine; assay type: functional, organism-based
# [25] = as §1, with “lung” for “kidney”; assay type: organism-based; details: in vivo, 720 h
# Mus musculus [26] = experiment: Anti-colitis activity against DSS-induced C57BL/6 mouse model of subchronic relapsing colitis assessed as effect on body weight at 0.15 mg/kg, po administered once daily for 14 days starting from day 5 post DSS-challenge cotreated with 20 mg/kg berberine and measured after day 12 to day 18; assay type: functional, organism-based
# Mus musculus [27] = experiment: Anti-colitis activity against DSS-induced C57BL/6 mouse model of chronic relapsing colitis assessed as reduction in DSS-induced spleen swelling at 0.15 mg/kg, po administered once daily for 30 days starting from day 13 post DSS-challenge cotreated with 20 mg/kg berberine; assay type: functional, organism-based
compound,measurement,setting,value
CCCCCCCCc1ccc(CCC(N)(CO)CO)cc1.Cl [FINGOLIMOD HYDROCHLORIDE],Activity,Mus musculus [1],Active
same,Activity,Mus musculus [2],Active
same,Activity,Mus musculus [3],Non-Toxic
same,Activity,Mus musculus [4],Active
same,Activity,[5],Non-Toxic
same,Activity,Mus musculus [6],inactive
same,Activity,THP-1,Active
same,Activity,Mus musculus [7],Active
same,Activity,Mus musculus [8],Active
same,Activity,[9],Non-Toxic
same,Activity,Mus musculus [10],Active
same,Activity,Mus musculus [11],Active
same,Activity,[12],Non-Toxic
same,inhibition,[13],Active
same,Activity,[14],Non-Toxic
same,Activity,Mus musculus [15],Active
same,Activity,Mus musculus [16],Active
same,Activity,Mus musculus [17],Active
same,Activity,Mus musculus [18],Active
same,Activity,Mus musculus [19],inactive
same,Activity,Mus musculus [20],Active
same,Activity,Mus musculus [21],inactive
same,Activity,[22],Non-Toxic
same,Activity,Mus musculus [23],inactive
same,Activity,Mus musculus [24],Active
same,Activity,[25],Non-Toxic
same,Activity,Mus musculus [26],inactive
same,Activity,Mus musculus [27],Active
